The values below come from patent US9855243B2, “Topical anti-inflammatory pharmaceutical composition with zileuton cream formulation” (Qurient Co., Ltd., priority 2013, dated 2018).

Data set [1] can be described thus: Physical stability, phase separation checked with the naked eye. The data set is classed as physicochemical. The note with it: solvent screened in cream composition. The source says: This is a test to discover an optimized processing method for obtaining a cream formulation.
Data set [2] is described as follows: Screening of excipient suitability: zileuton with excipient, stability at 50° C. The note with it: changes of TRS % up to 4 weeks at 50° C. The data set is classed as physicochemical. The protocol:
Suitability of components generally used in cream formulation with respect to zieluton was screened, prior to preparing a zieluton cream formulation. […] That is, the stability of excipient at 50° C. was tested.

Structures are written as SMILES.

Regarding `CN1CCCC1=O` [NMP, N-methyl pyrrolidone], the “Physical stability of cream made with this solvent” value in data set [1] was “bad physical stability”.
With `OCc1ccccc1` [benzyl alcohol], the “Physical stability of cream made with this solvent” value in data set [1] was “bad physical stability”.
The same measure, in the same setting: the value for `CCO` [ethanol] was “deteriorates physical stability”.
`CCCCCCCCCCCCCCCCCCO` [stearyl alcohol]: in data set [2], the “Suitability of excipient with respect to zileuton” value is “suitable”.
